Results published in patent US4160097A, “1-(2-Phenylureylene)imidazoles” (Westwind Pharmaceuticals, Inc., priority 1977, dated 1979).
In brackets after ≈: the same amount, converted by molar mass.

system: humeral or antibody response; assay: hemolysin test in mice; type: in vivo; details: Mus musculus, sc, dose reducing antibody activity by 50% vs control, read-out: HL(ED50)

Row | SMILES | ED50
1 | c1ccc2c(c1)ncc1nccn12 [Compound 109, imidazo[1,2-a]quinoxaline, reference compound] | > 50 mg/kg
2 | c1ccc(-c2nc3ccccc3n3ccnc23)cc1 [Compound 131, 4-phenylimidazo[1,2-a]quinoxaline, reference compound] | 18 mg/kg
3 | Cc1cccc(-c2nc3ccccc3n3ccnc23)c1 [Compound 133] | 0.75 mg/kg
4 | Nc1ccc(-c2nc3ccccc3n3ccnc23)cc1 [Compound 153] | 1.2 mg/kg

system: Candida albicans; assay: Antifungal activity, agar dilution method; type: cell-based, Candida albicans (ATCC No. 10231); details: C. albicans, read-out: Parts Per Million Inhibitions of C. albicans
Method: (§1) various compounds of this invention display antifungal and anti-yeast activity.
(§2) In Table IX below are listed the antifungal activity of a number of compounds encompassed in the present invention. These were determined by the agar dilution method as described in Chapters 2 and 3 of Methods in Microbiology, Vol. 7B, edited by J. R. Norris and D. W. Ribbons, Academic Press, New York, 1972.

Row | SMILES | MIC
5 | O=C(Nc1ccccc1-n1ccnc1)c1ccc(-c2ccccc2)cc1 [Compound 40] | 100 µg/mL (≈ 295 µM)
6 | CCCCc1nc2ccccc2n2ccnc12 [Compound 113] | 100 µg/mL (≈ 444 µM)
7 | c1ccc(Cc2nc3ccccc3n3ccnc23)cc1 [Compound 124] | 100 µg/mL (≈ 386 µM)
8 | C1=CCC(c2nc3ccccc3n3ccnc23)CC1 (stereo not shown) [Compound 130] | 100 µg/mL (≈ 401 µM)
9 | Cc1cccc(-c2nc3ccccc3n3ccnc23)c1 [Compound 133] | 100 µg/mL (≈ 386 µM)

system: Trichophyton mentagrophytes; assay: Antifungal activity, agar dilution method; type: cell-based, Trichophyton mentagrophytes (ATCC No. 8757 and 9129); details: T. mentagrophytes, read-out: Parts Per Million Inhibitions of T. mentagrophytes
Method: as §1, §2

Row | SMILES | MIC
10 | O=C(Nc1ccccc1-n1ccnc1)c1ccc(-c2ccccc2)cc1 [Compound 40] | 100 µg/mL (≈ 295 µM)
11 | c1ccc2c(c1)ncc1nccn12 [Compound 109, imidazo[1,2-a]quinoxaline, reference compound] | 128 µg/mL (≈ 757 µM)
12 | Cc1nc2ccccc2n2ccnc12 [Compound 110] | 128 µg/mL (≈ 699 µM)
13 | CCCCc1nc2ccccc2n2ccnc12 [Compound 113] | 100 µg/mL (≈ 444 µM)
14 | c1ccc(Cc2nc3ccccc3n3ccnc23)cc1 [Compound 124] | 100 µg/mL (≈ 386 µM)
15 | C1=CCC(c2nc3ccccc3n3ccnc23)CC1 (stereo not shown) [Compound 130] | 100 µg/mL (≈ 401 µM)
16 | c1ccc(-c2nc3ccccc3n3ccnc23)cc1 [Compound 131, 4-phenylimidazo[1,2-a]quinoxaline, reference compound] | 16 µg/mL (≈ 65.2 µM)
17 | Cc1cccc(-c2nc3ccccc3n3ccnc23)c1 [Compound 133] | 8 µg/mL (≈ 30.9 µM)

system: Trichophyton rubrum; assay: Antifungal activity, agar dilution method; type: cell-based, Trichophyton rubrum (ATCC No. 10218 and 14001); details: T. rubrum, read-out: Parts Per Million Inhibitions of T. rubrum
Method: as §1, §2

Row | SMILES | MIC
18 | c1ccc2c(c1)ncc1nccn12 [Compound 109, imidazo[1,2-a]quinoxaline, reference compound] | 32 µg/mL (≈ 189 µM)
19 | Cc1nc2ccccc2n2ccnc12 [Compound 110] | 64 µg/mL (≈ 349 µM)
20 | c1ccc(Cc2nc3ccccc3n3ccnc23)cc1 [Compound 124] | 8 µg/mL (≈ 30.9 µM)
21 | c1ccc(-c2nc3ccccc3n3ccnc23)cc1 [Compound 131, 4-phenylimidazo[1,2-a]quinoxaline, reference compound] | 2 µg/mL (≈ 8.15 µM)
22 | Cc1cccc(-c2nc3ccccc3n3ccnc23)c1 [Compound 133] | 8 µg/mL (≈ 30.9 µM)

system: carrageenan rat paw edema; assay: Rat Paw Edema Assay, Local Administration; type: in vivo; details: 1 μg, injected directly into paw, read-out: % Difference from Control
Method: (§3) The anti-inflammatory activity of representative compounds of this invention was determined by the rat paw edema assay both by local administration (Table XI below) and by oral dosing (Table XII below). For the oral dosing, the procedure of C. A. Winter, E. A. Risley and G. W. Nuss, Proc. Soc. Exp. Biol. Med. III, 544 (1962) was employed with measurement taken four hours after the drug was administered. The local administration tests were carried out similarly except the irritant (carrageenan) and the test compound were injected simultaneously at time zero.
(§4) Tables XI and XII report the anti-inflammatory activity of the compounds tested as % difference in the edema or swelling as compared with the control. These Tables also give the response in many instances of more than one dose level of the same drug.

Row | SMILES | change in vivo at 0.001 mg
23 | c1ccc2c(c1)ncc1nccn12 [Compound 109, imidazo[1,2-a]quinoxaline, reference compound] | -30.8%

same assay, conditions: 10 μg, injected directly into paw, read-out: % Difference from Control

Row | SMILES | change in vivo at 0.01 mg
24 | c1ccc2c(c1)ncc1nccn12 [Compound 109, imidazo[1,2-a]quinoxaline, reference compound] | -3.9%

same assay, conditions: 100 μg, injected directly into paw, read-out: % Difference from Control

Row | SMILES | change in vivo at 0.1 mg
25 | c1ccc2c(c1)ncc1nccn12 [Compound 109, imidazo[1,2-a]quinoxaline, reference compound] | 31.6%

same assay, conditions: 100 mg/kg, local administration, read-out: % Difference from Control

Row | SMILES | change in vivo at 100 mg/kg
26 | Cc1nc2ccccc2n2ccnc12 [Compound 110] | -74%

system: carrageenan rat paw edema; assay: Rat Paw Edema Assay, Oral Dosing; type: in vivo; details: 4 h, 100 mg/kg oral, four hours after drug, read-out: % Difference from Control
Method: as §3, §4

Row | SMILES | change in vivo at 100 mg/kg
27 | O=C(Nc1ccccc1-n1ccnc1)c1ccc(-c2ccccc2)cc1 [Compound 40] | -43%
28 | c1ccc2c(c1)ncc1nccn12 [Compound 109, imidazo[1,2-a]quinoxaline, reference compound] | -17%
29 | Cc1nc2ccccc2n2ccnc12 [Compound 110] | -43%
30 | c1ccc(-c2nc3ccccc3n3ccnc23)cc1 [Compound 131, 4-phenylimidazo[1,2-a]quinoxaline, reference compound] | -52%
31 | Cc1cccc(-c2nc3ccccc3n3ccnc23)c1 [Compound 133] | -17%

system: Candida tropicalis; assay: Antifungal activity, agar dilution method; type: cell-based; details: C. tropicalis, read-out: Parts Per Million Inhibitions of C. tropicalis
Method: as §1, §2

Row | SMILES | MIC
32 | O=C(Nc1ccccc1-n1ccnc1)c1ccc(-c2ccccc2)cc1 [Compound 40] | 100 µg/mL (≈ 295 µM)
33 | CCCCc1nc2ccccc2n2ccnc12 [Compound 113] | 100 µg/mL (≈ 444 µM)
34 | c1ccc(Cc2nc3ccccc3n3ccnc23)cc1 [Compound 124] | 100 µg/mL (≈ 386 µM)
35 | C1=CCC(c2nc3ccccc3n3ccnc23)CC1 (stereo not shown) [Compound 130] | 100 µg/mL (≈ 401 µM)
36 | Cc1cccc(-c2nc3ccccc3n3ccnc23)c1 [Compound 133] | 100 µg/mL (≈ 386 µM)
37 | Nc1ccc(-c2nc3ccccc3n3ccnc23)cc1 [Compound 153] | 100 µg/mL (≈ 384 µM)

system: Trichophyton ajelloi; assay: Antifungal activity, agar dilution method; type: cell-based; details: Arthroderma uncinatum, T. ajelloi, read-out: Parts Per Million Inhibitions of T. ajelloi
Method: as §1, §2

Row | SMILES | MIC
38 | O=C(Nc1ccccc1-n1ccnc1)c1ccc(-c2ccccc2)cc1 [Compound 40] | 100 µg/mL (≈ 295 µM)
39 | c1ccc(Cc2nc3ccccc3n3ccnc23)cc1 [Compound 124] | 100 µg/mL (≈ 386 µM)
40 | C1=CCC(c2nc3ccccc3n3ccnc23)CC1 (stereo not shown) [Compound 130] | 100 µg/mL (≈ 401 µM)
41 | Cc1cccc(-c2nc3ccccc3n3ccnc23)c1 [Compound 133] | 8 µg/mL (≈ 30.9 µM)

system: immune response; assay: immunosuppressant activity (general statement); type: in vivo, mice; details: statement in words

Row | SMILES | immunosuppressant activity
42 | c1ccc2c(c1)ncc1nccn12 [Compound 109, imidazo[1,2-a]quinoxaline, reference compound] | lacks immunosuppressant activity
43 | c1ccc(-c2nc3ccccc3n3ccnc23)cc1 [Compound 131, 4-phenylimidazo[1,2-a]quinoxaline, reference compound] | only minor activity

system: cell-mediated immune response to the antigen, Mycobacterium tuberculosis H37Ra; assay: delayed hypersensitivity test; type: in vivo, mouse; details: Mus musculus, sc; mice; dose reducing edema of cell-mediated immune response by 60% vs control; read-out: D.H.S. (ED60)
Method: The immunosuppressant activities of the compounds of this invention were determined via the hemolysin test in mice and by the delayed hypersensitivity test. The hemolysin test used is that described in Methods in Immunology, edited by D. H. Campbell et al, W. A. Benjamin, New York 1963 pages 172-175, and measures humeral or antibody response. The delayed hypersensitivity test measures the effect of a test compound on the ability of a subject mouse to mount a cell-mediated immune response to the antigen, Mycobacterium tuberculosis H37Ra. The mouse is sensitized to the antigen by subcutaneous administration in the base of the tail. The development of the delayed hypersensitivity response may be measured at any time beginning six days after sensitization but is usually done on the ninth day as follows: The right hind paw is injected with purified protein derivative (tuberculin) while the left hind paw (control) receives physiological saline. Both paw volumes are measured after twenty-four hours and significant increase in the volume of the right hand paw is taken as a measure of an effective delayed hypersensitivity response. All compounds were administered by the subcutaneous route.
The D.H.S. (ED60) mg./kg. s.c. value appearing in column 3 is an expression of the effectiveness of the drug in reducing the edema that accompanies the cell-mediated immune response. It is a measure of the number of milligrams per kilogram of body weight of the drug administered subcutaneously which is required to reduce the edema of the cell-mediated immune response by 60% when compared to the control.

Row | SMILES | ED60
44 | c1ccc2c(c1)ncc1nccn12 [Compound 109, imidazo[1,2-a]quinoxaline, reference compound] | > 50 mg/kg
45 | Cc1nc2ccccc2n2ccnc12 [Compound 110] | 50 mg/kg
46 | c1ccc(-c2nc3ccccc3n3ccnc23)cc1 [Compound 131, 4-phenylimidazo[1,2-a]quinoxaline, reference compound] | 81 mg/kg
47 | Cc1cccc(-c2nc3ccccc3n3ccnc23)c1 [Compound 133] | 32 mg/kg
48 | Nc1ccc(-c2nc3ccccc3n3ccnc23)cc1 [Compound 153] | 5.7 mg/kg

system: Aspergillus niger; assay: Antifungal activity, agar dilution method; type: cell-based, Aspergillus niger (ATCC No. 16404); details: A. niger, read-out: Parts Per Million Inhibitions of A. niger
Method: as §1, §2

Row | SMILES | MIC
49 | Cc1nc2ccccc2n2ccnc12 [Compound 110] | 128 µg/mL (≈ 699 µM)
